According to patent US12122763B2, “Substituted piperidines for androgen receptor degradation” (UBIX THERAPEUTICS, INC., priority 2020, dated 2024):

Target: T1, Androgen Receptor (AR) protein (Homo sapiens, UniProt P10275, T878A)
T1 construct: endogenous in cells; host or cells: LNCaP
Test: Androgen Receptor (AR) protein degradation assay in LNCaP cells, western blotting
Assay type: cell-based
Details: 20 h; for inhibition at 0.01 µM: 0.01 μM compound; for inhibition at 0.1 µM: 0.1 μM compound; for inhibition at 1 µM: 1 μM compound; for inhibition at 10 µM: 10 μM compound
How it was run: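 LNCaP prostate cancer cells were cultured 3 days, then treated with compound for 20 h. Lysates in 1% SDS buffer were normalised by BCA, and 8 μg protein was run on 4–12% Bis-Tris gels. AR was immunoblotted with chemiluminescence, using GAPDH/β-actin as loading controls.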

T1 sequence (P10275 whole entry T878A): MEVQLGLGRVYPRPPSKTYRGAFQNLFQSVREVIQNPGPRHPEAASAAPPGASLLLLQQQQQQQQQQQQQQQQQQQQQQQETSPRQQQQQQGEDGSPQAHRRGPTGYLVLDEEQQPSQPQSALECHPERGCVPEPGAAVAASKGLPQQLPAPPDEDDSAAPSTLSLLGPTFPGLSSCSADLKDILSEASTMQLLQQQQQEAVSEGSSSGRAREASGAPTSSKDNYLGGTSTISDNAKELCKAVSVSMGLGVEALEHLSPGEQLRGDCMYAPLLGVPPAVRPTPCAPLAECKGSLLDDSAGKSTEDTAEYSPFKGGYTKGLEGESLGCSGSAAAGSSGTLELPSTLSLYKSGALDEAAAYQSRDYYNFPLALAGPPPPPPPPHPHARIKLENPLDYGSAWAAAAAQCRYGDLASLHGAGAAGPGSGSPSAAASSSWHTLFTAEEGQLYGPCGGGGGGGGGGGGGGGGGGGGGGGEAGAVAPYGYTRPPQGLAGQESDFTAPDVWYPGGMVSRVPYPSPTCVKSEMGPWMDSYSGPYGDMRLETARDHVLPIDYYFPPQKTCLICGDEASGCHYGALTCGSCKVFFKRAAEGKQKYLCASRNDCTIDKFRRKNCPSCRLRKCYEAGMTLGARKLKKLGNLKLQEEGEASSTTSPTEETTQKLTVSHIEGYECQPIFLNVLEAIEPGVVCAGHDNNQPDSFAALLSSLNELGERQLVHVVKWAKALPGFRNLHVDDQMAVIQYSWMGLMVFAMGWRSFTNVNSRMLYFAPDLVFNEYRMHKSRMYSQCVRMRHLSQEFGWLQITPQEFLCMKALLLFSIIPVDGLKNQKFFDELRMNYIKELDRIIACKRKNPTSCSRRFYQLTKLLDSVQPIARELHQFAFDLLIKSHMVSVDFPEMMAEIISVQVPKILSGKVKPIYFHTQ
T1 sequence (Q96SW2 whole entry partner): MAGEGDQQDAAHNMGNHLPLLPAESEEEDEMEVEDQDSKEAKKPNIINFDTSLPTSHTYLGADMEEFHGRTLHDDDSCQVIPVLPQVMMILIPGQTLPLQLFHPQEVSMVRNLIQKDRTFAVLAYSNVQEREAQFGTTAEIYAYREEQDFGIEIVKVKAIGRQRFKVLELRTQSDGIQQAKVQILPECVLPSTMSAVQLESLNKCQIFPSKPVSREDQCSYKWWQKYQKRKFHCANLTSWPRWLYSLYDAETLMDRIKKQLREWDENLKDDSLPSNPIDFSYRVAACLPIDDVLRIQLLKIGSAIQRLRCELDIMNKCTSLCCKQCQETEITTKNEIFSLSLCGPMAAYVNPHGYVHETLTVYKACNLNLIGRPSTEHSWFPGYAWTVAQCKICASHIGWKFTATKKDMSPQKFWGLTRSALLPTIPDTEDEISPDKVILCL

| Structure (SMILES) | inhibition at 0.01 µM | inhibition at 0.1 µM | inhibition at 1 µM | inhibition at 10 µM |
| --- | --- | --- | --- | --- |
| N#Cc1ccc(N2CCC(C(=O)Nc3ccc(N4CCC(CCN5CCN(C6CN(c7ccc8c(c7)C(=O)N(C7CCC(=O)NC7=O)C8=O)C6)CC5)CC4)cn3)CC2)cc1C(F)(F)F (stereo not shown) [Example 99, 1-(4-cyano-3-(trifluoromethyl)phenyl)-N-(5-(4-(2-(4-(1-(2-(2,6-dioxopiperidin-3-yl)-1,3-dioxoisoindolin-5-yl)azetidin-3-yl)piperazin-1-yl)ethyl)piperidin-1-yl)pyridin-2-yl)piperidine-4-carboxamide] | 70% | 98% | 96% | – |
| N#Cc1ccc(N2CCC(C(=O)Nc3ccc(N4CCC(CCN5CCN(C6CN(c7ccc8c(n7)CN(C7CCC(=O)NC7=O)C8=O)C6)CC5)CC4)cn3)CC2)cc1C(F)(F)F (stereo not shown) [Example 100, 1-(4-cyano-3-(trifluoromethyl)phenyl)-N-(5-(4-(2-(4-(1-(6-(2,6-dioxopiperidin-3-yl)-5-oxo-6,7-dihydro-5H-pyrrolo[3,4-b]pyridin-2-yl)azetidin-3-yl)piperazin-1-yl)ethyl)piperidin-1-yl)pyridin-2-yl)piperidine-4-carboxamide] | 31% | 84% | 89% | – |
| N#Cc1ccc(N2CCC(C(=O)Nc3ccc(N4CCC(CCN5CC6CN(c7ccc8c(c7)C(=O)N(C7CCC(=O)NC7=O)C8=O)CC6C5)CC4)cn3)CC2)cc1C(F)(F)F (stereo not shown) [Example 101, 1-(4-cyano-3-(trifluoromethyl)phenyl)-N-(5-(4-(2-(5-(2-(2,6-dioxopiperidin-3-yl)-1,3-dioxoisoindolin-5-yl)hexahydropyrrolo[3,4-c]pyrrol-2(1H)-yl)ethyl)piperidin-1-yl)pyridin-2-yl)piperidine-4-carboxamide] | 63% | 95% | 95% | – |
| CN(CCC1CCN(c2ccc(NC(=O)C3CCN(c4ccc(C#N)c(C(F)(F)F)c4)CC3)nc2)CC1)C1CCN(c2ccc3c(c2)C(=O)N(C2CCC(=O)NC2=O)C3=O)CC1 (stereo not shown) [Example 102, 1-(4-cyano-3-(trifluoromethyl)phenyl)-N-(5-(4-(2-((1-(2-(2,6-dioxopiperidin-3-yl)-1,3-dioxoisoindolin-5-yl)piperidin-4-yl)(methyl)amino)ethyl)piperidin-1-yl)pyridin-2-yl)piperidine-4-carboxamide] | 35% | 90% | 92% | – |
| N#Cc1ccc(N2CCN(C(=O)Nc3ccc(N4CCC(CN5CC6(CCN(c7ccc8c(c7)C(=O)N(C7CCC(=O)NC7=O)C8=O)CC6)C5)CC4)nc3)CC2)cc1C(F)(F)F (stereo not shown) [Example 103, 4-(4-cyano-3-(trifluoromethyl)phenyl)-N-(6-(4-((7-(2-(2,6-dioxopiperidin-3-yl)-1,3-dioxoisoindolin-5-yl)-2,7-diazaspiro[3.5]nonan-2-yl)methyl)piperidin-1-yl)pyridin-3-yl)piperazine-1-carboxamide] | -9% | 15% | 44% | 58% |
| N#Cc1ccc(N2CCN(C(=O)Nc3ccc(N4CCC(CN5CC6(CCN(c7ccc8c(c7)C(=O)N(C7CCC(=O)NC7=O)C8=O)CC6)C5)CC4)nc3)CC2)cc1Cl (stereo not shown) [Example 104, 4-(3-chloro-4-cyanophenyl)-N-(6-(4-((7-(2-(2,6-dioxopiperidin-3-yl)-1,3-dioxoisoindolin-5-yl)-2,7-diazaspiro[3.5]nonan-2-yl)methyl)piperidin-1-yl)pyridin-3-yl)piperazine-1-carboxamide] | -2% | -5% | 36% | 59% |
| N#Cc1ccc(N2CCC(C(=O)Nc3ccc(N4CCC(CN5CCN(C6CCN(c7ccc(C(=O)NC8CCC(=O)NC8=O)nc7)CC6)CC5)CC4)cn3)CC2)cc1C(F)(F)F (stereo not shown) [Example 105, 5-(4-(4-((1-(6-(1-(4-cyano-3-(trifluoromethyl)phenyl)piperidine-4-carboxamido)pyridin-3-yl)piperidin-4-yl)methyl)piperazin-1-yl)piperidin-1-yl)-N-(2,6-dioxopiperidin-3-yl)picolinamide] | 43% | 82% | 92% | – |
| N#Cc1ccc(N2CCC(C(=O)Nc3ccc(N4CCC(CN5CCN(CC6CCN(c7ccc(C(=O)NC8CCC(=O)NC8=O)nc7)CC6)CC5)CC4)cn3)CC2)cc1C(F)(F)F (stereo not shown) [Example 106, 5-(4-((4-((1-(6-(1-(4-cyano-3-(trifluoromethyl)phenyl)piperidine-4-carboxamido)pyridin-3-yl)piperidin-4-yl)methyl)piperazin-1-yl)methyl)piperidin-1-yl)-N-(2,6-dioxopiperidin-3-yl)picolinamide] | 32% | 86% | 96% | – |
| N#Cc1ccc(N2CCC(C(=O)Nc3ccc(N4CCC(CCN5CCN(c6ccc(C(=O)NC7CCC(=O)NC7=O)nc6)CC5)CC4)cn3)CC2)cc1C(F)(F)F (stereo not shown) [Example 107, 5-(4-(2-(1-(6-(1-(4-cyano-3-(trifluoromethyl)phenyl)piperidine-4-carboxamido)pyridin-3-yl)piperidin-4-yl)ethyl)piperazin-1-yl)-N-(2,6-dioxopiperidin-3-yl)picolinamide] | 44% | 85% | 93% | – |
| C[C@@H]1CN(CC2CCN(c3ccc(C(=O)NC4CCC(=O)NC4=O)nc3)CC2)CCN1CC1CCN(c2ccc(NC(=O)C3CCN(c4ccc(C#N)c(C(F)(F)F)c4)CC3)nc2)CC1 (stereo partly drawn) [Example 108, 5-(4-(((R)-4-((1-(6-(1-(4-cyano-3-(trifluoromethyl)phenyl)piperidine-4-carboxamido)pyridin-3-yl)piperidin-4-yl)methyl)-3-methylpiperazin-1-yl)methyl)piperidin-1-yl)-N-(2,6-dioxopiperidin-3-yl)picolinamide] | 51% | 85% | 89% | – |
| C[C@H]1CN(CC2CCN(c3ccc(C(=O)NC4CCC(=O)NC4=O)nc3)CC2)CCN1CC1CCN(c2ccc(NC(=O)C3CCN(c4ccc(C#N)c(C(F)(F)F)c4)CC3)nc2)CC1 (stereo partly drawn) [Example 109, 5-(4-(((S)-4-((1-(6-(1-(4-cyano-3-(trifluoromethyl)phenyl)piperidine-4-carboxamido)pyridin-3-yl)piperidin-4-yl)methyl)-3-methylpiperazin-1-yl)methyl)piperidin-1-yl)-N-(2,6-dioxopiperidin-3-yl)picolinamide] | 30% | 82% | 83% | – |
| CN(CCN1CCN(c2ccc3c(c2)C(=O)N(C2CCC(=O)NC2=O)C3=O)CC1)CC1CCN(c2ccc(NC(=O)C3CCN(c4ccc(C#N)c(C(F)(F)F)c4)CC3)nc2)CC1 (stereo not shown) [Example 110, 1-(4-cyano-3-(trifluoromethyl)phenyl)-N-(5-(4-(((2-(4-(2-(2,6-dioxopiperidin-3-yl)-1,3-dioxoisoindolin-5-yl)piperazin-1-yl)ethyl)(methyl)amino)methyl)piperidin-1-yl)pyridin-2-yl)piperidine-4-carboxamide] | 56% | 89% | 88% | – |
| N#Cc1ccc(N2CCC(C(=O)Nc3ccc(N4CCN(C(=O)CCCCCNc5ccc6c(c5)C(=O)N(C5CCC(=O)NC5=O)C6=O)CC4)cn3)CC2)cc1C(F)(F)F (stereo not shown) [Example 111, 1-(4-cyano-3-(trifluoromethyl)phenyl)-N-(5-(4-(6-((2-(2,6-dioxopiperidin-3-yl)-1,3-dioxoisoindolin-5-yl)amino)hexanoyl)piperazin-1-yl)pyridin-2-yl)piperidine-4-carboxamide] | 29% | 70% | 67% | 67% |
| N#Cc1ccc(N2CCC(C(=O)Nc3ccc(N4CCN(C(=O)CCCCCNc5ccc6c(c5)C(=O)N(C5CCC(=O)NC5=O)C6=O)CC4)cn3)CC2)cc1Cl (stereo not shown) [Example 112, 1-(3-chloro-4-cyanophenyl)-N-(5-(4-(6-((2-(2,6-dioxopiperidin-3-yl)-1,3-dioxoisoindolin-5-yl)amino)hexanoyl)piperazin-1-yl)pyridin-2-yl)piperidine-4-carboxamide] | 9% | 55% | 50% | 48% |
| N#Cc1ccc(N2CCC(C(=O)Nc3ccc(N4CCN(CCCCCOc5ccc6c(c5)C(=O)N(C5CCC(=O)NC5=O)C6=O)CC4)cn3)CC2)cc1C(F)(F)F (stereo not shown) [Example 113, 1-(4-cyano-3-(trifluoromethyl)phenyl)-N-(5-(4-(5-((2-(2,6-dioxopiperidin-3-yl)-1,3-dioxoisoindolin-5-yl)oxy)pentyl)piperazin-1-yl)pyridin-2-yl)piperidine-4-carboxamide] | 55% | 92% | 87% | – |
| N#Cc1ccc(N2CCC(C(=O)Nc3ccc(N4CCN(CCCCCOc5ccc6c(c5)C(=O)N(C5CCC(=O)NC5=O)C6=O)CC4)cn3)CC2)cc1Cl (stereo not shown) [Example 114, 1-(3-chloro-4-cyanophenyl)-N-(5-(4-(5-((2-(2,6-dioxopiperidin-3-yl)-1,3-dioxoisoindolin-5-yl)oxy)pentyl)piperazin-1-yl)pyridin-2-yl)piperidine-4-carboxamide] | 41% | 89% | 91% | – |
| N#Cc1ccc(N2CCC(C(=O)Nc3ccc(N4CCN(CCCCOc5ccc6c(c5)C(=O)N(C5CCC(=O)NC5=O)C6=O)CC4)cn3)CC2)cc1C(F)(F)F (stereo not shown) [Example 115, 1-(4-cyano-3-(trifluoromethyl)phenyl)-N-(5-(4-(4-((2-(2,6-dioxopiperidin-3-yl)-1,3-dioxoisoindolin-5-yl)oxy)butyl)piperazin-1-yl)pyridin-2-yl)piperidine-4-carboxamide] | 18% | 89% | 87% | – |
